Data set [1] deals with Trypanosoma brucei rhodesiense (T. b. r.). The experiment in a line: In vitro antiprotozoal activity against T. b. r. Type of data set: cell-based. Here is the method: (§1) In vitro antiprotozoal activities were measured following established protocols. See Ismail, M. A., et al., J. Med. Chem., 46, 4761-4769 (2003); Stephens, C. E., et al., Bioorg. Med. Chem. Lett., 13, 2065-2069 (2003) (in vitro assay against Leishmania donovani).
(§2) Testing methods are as described above in Example 17.

In a further data set the test system is L-6 rat mycoblast cells. The experiment in a line: cells. The method, then: as §1, §2
Data set [2] relates to Plasmodium falciparum (P. f.). The data set is described as follows: In vitro antiprotozoal activity against P. f. Type of data set: cell-based. The method, then: as §1, §2
For data set [3], the system named is STIB 900 strain of Trypanosoma brucei rhodesiense. The experiment in a line: T. b. r. STIB 900 mouse model. The data set is classed as in vivo. The note with it: for responders at 20 mg/kg: read-out: Cures (converted). The method, then:
The activities of compounds 20, 18, 21, 48, 23c, 24c, 5, 4, and 10 against the STIB 900 strain of Trypanosoma brucei rhodesiense (T. b. r.) in a mouse model are shown in Table 3. […] Groups of four mice were infected intraperitoneally with 2×10^5 bloodstream forms of T. b. r. STIB 900 which originates from a patient in Tanzania. On days 3, 4, 5, and 6 post-infection the experimental groups were treated with the indicated compound, either by the intraperitoneal route, or for prodrugs, by the oral route. Usually the highest tolerated dose was used. The highest tolerated dose was determined in a pretoxicological experiment.
Parasitemia of the mice was checked daily up to day 14 post-infection and thereafter 2 times per week up to day 60. One group of mice was not treated and acted as control. Untreated control animals expire between day 7 and 8 post-infection. For relapsing mice, the day of death was recorded and the survival time determined. For the data shown in Table 3, cures reflect the number of mice that survive and are parasite free for 60 days. Survival reflects the average days of survival.
as §2

Setting [4] is: Trypanosoma brucei, RHODESIENSE, Table 1, k/K = thousand, read-out: T. b. r. IC50.
[5] abbreviates: Rattus norvegicus, L6, read-out: CT IC50.
Where [6] appears, read: Plasmodium falciparum, Table 1, k/K = thousand.
The mark [7] stands for this setting: 100 mg/kg po, days 3-6 post-infection, average days of survival.
[8] abbreviates: 20 mg/kg ip, days 3-6 post-infection, average days of survival.
[9] abbreviates: Trypanosoma brucei, 1440 h, 20 mg/kg ip, days 3-6 post-infection, mice surviving parasite free for 60 days, groups of four.
Where [10] appears, read: Table 1, k/K = thousand, read-out: T. b. r. IC50.
[11] abbreviates: read-out: CT IC50, Table 1, L-6 cells.
Where [12] appears, read: Rattus norvegicus, L6, read-out: CT IC50, Table 1, L-6 cells.
The mark [13] stands for this setting: Table 2, K = thousand, read-out: T. b. r. IC50.

Structures can show the parent of a compound that is named as a salt. Where two headings read alike, the source gives them in different places.

One may read the IC50 as the concentration at which inhibition is half-maximal. As for `N=C(NO)c1ccc(-c2ccc(-c3ccc(C(=N)NO)o3)cc2)cc1` [Compound 3, N-Hydroxy-5-[4′-(N-hydroxyamidino)-biphenyl-4-yl]-furan-2-carboxamidine], the 50% inhibitory concentration (IC50) stood at 67 µM in data set [1] (setting [4]), 106 µM in the data set with L-6 rat mycoblast cells (setting [5]) and 6.6 µM in data set [2] (setting [6]).

`CONC(=N)c1ccc(-c2ccc(-c3ccc(C(=N)NOC)o3)cc2)cc1` [Compound 4, N-Methoxy-5-[4′-(N-methoxyamidino)-biphenyl-4-yl]-furan-2-carboxamidine] yielded a Survival in data set [3] (setting [7]) of 29 days. Moreover, the responders at 100 mg/kg in data set [3] (Trypanosoma brucei, 1440 h, 100 mg/kg po, days 3-6 post-infection, mice surviving parasite free for 60 days, groups of four, read-out: Cures) stood at 0%. Also, the IC50 is 24 µM in data set [1] (setting [4]), greater than 206 µM in the data set with L-6 rat mycoblast cells (setting [5]) and 1.6 µM in data set [2] (setting [6]).

In data set [3] (setting [8]), `CC(=O)O.N=C(N)c1ccc(-c2ccc(-c3ccc(C(=N)N)o3)cc2)cc1` [Compound 5, 5-(4′-Amidinobiphenyl-4-yl)-furan-2-carboxamidine acetate salt] displayed a Survival of 21.25 days. Besides, the responders at 20 mg/kg in data set [3] (setting [9]) was 0%. For the same compound, the IC50 in data set [1] (setting [4]) was 0.005 µM; with L-6 rat mycoblast cells (setting [5]) it was 2 µM; in data set [2] (setting [6]) it was 0.001 µM.

In data set [3] (setting [7]), `NC(=NO)c1ccc(-c2ccc(-c3ccc(C(N)=NO)cc3)cc2)cc1` [Compound 18, [1,1′;4′,1″]Terphenyl-4,4″-bis-N-hydroxycarboxamidine] displayed a Survival of 24.75 days. Further, the Cures in data set [3] (100 mg/kg po, days 3-6 post-infection, mice surviving parasite free for 60 days, groups of four) is given as 0/4. The IC50 in data set [1] (setting [10]) is 22.8 µM; with L-6 rat mycoblast cells (setting [11]), greater than 212 µM; in data set [2] (Table 1, k/K = thousand) it was greater than 118 µM.

For the compound `NC(=NO)c1ccc(-c2ccc(-c3ccc(C(N)=NO)cc3)c(F)c2)cc1` [Compound 24a, 2′-Fluoro-[1,1′;4′,1″]terphenyl-4,4″-bis-N-hydroxycarboxamidine], the 50% inhibitory concentration (IC50) in data set [1] (setting [10]) was greater than 201 µM; in the data set with L-6 rat mycoblast cells (setting [11]), 29.1 µM; in data set [2] (Table 1, k/K = thousand) it was 0.925 µM.

`NC(=NO)c1ccc(-c2ccc(-c3ccc(C(N)=NO)cc3)c(C(F)(F)F)c2)cc1` [Compound 24b, 2′-Trifluoromethyl-[1,1′;4′,1″]terphenyl-4,4″-bis-N-hydroxycarboxamidine]: the IC50 in data set [1] (setting [10]) worked out at 29.9 µM; in the data set with L-6 rat mycoblast cells (setting [11]) it was 13.3 µM; in data set [2] (Table 1, k/K = thousand), 3.1 µM.

In the case of `CON=C(N)c1ccc(-c2ccc(-c3ccc(C(N)=NOC)cc3)c(F)c2)cc1` [Compound 25a, 2′Fluoro-[1,1′;4′,1″]terphenyl-4,4″-bis-methoxycarboxamidine], the IC50 in data set [1] (setting [10]) was greater than 51.5 µM; in data set [2] (Table 1, k/K = thousand), 4.2 µM.

`CON=C(N)c1ccc(-c2ccc(-c3ccc(C(N)=NOC)cc3)c(C(F)(F)F)c2)cc1` [Compound 25b, 2′-Trifluoromethyl-[4′,1′;4′,1″]terphenyl-4,4″-bis-methoxycarboxamidine]: the IC50 in data set [1] (setting [10]) amounted to 36.9 µM; with L-6 rat mycoblast cells (setting [11]), 42.2 µM; in data set [2] (Table 1, k/K = thousand), 3.8 µM.

For the compound `CONC(=N)c1ccc(-c2ccc(-c3ccc(C(=N)NOC)cc3)nc2)cc1` [Compound 25c, Phenyl[1,1′]pyridyl[4′,1″]phenyl-4,4″-bis-N-methoxycarboxamidine], the IC50 is 34.7 µM in data set [1] (setting [10]); greater than 166 µM in the data set on L-6 rat mycoblast cells (setting [11]); 3.2 µM in data set [2] (Table 1, k/K = thousand).

Take `N=C(N)c1ccc(-c2cnc(-c3ccc(C(=N)N)cc3)nc2)cc1` [Compound 27, 2,5-Bis-(4′-amidinophenyl)-pyrimidine]: the figures for the IC50 (in the data set on L-6 rat mycoblast cells (setting [12]); in data set [2] (setting [6])) were 40.9 µM and 0.0005 µM, respectively.

Consider `CON=C(N)c1ccc(-c2ccc(-c3ccc(C(N)=NOC)nc3)cc2)cn1` [Compound 33, 1,4-Bis-[5′-(N-methoxyamidinopyridin-2′-yl)]phenylene], for which the IC50 is 82.9 µM in data set [1] (setting [10]); greater than 158 µM in the data set with L-6 rat mycoblast cells (setting [11]); 1.2 µM in data set [2] (Table 1, k/K = thousand).

Regarding `N=C(N)c1ccc(Cc2ccc(-c3ccc(C(=N)N)cc3)nc2)cc1` [Compound 36a, 2-(4′-Amidinophenyl)-5-(4″-amidinobenzyl)pyridine acetate salt], the IC50 in data set [1] (setting [10]) was determined as 0.041 µM; in the data set with L-6 rat mycoblast cells (setting [11]) it was 18.1 µM; in data set [2] (Table 1, k/K = thousand), 0.011 µM.

Regarding `NC(=NO)c1ccc(-c2ccc(-c3ccc(C(N)=NO)cc3)c3ccccc23)cc1` [Compound 39, Phenyl[1,1′]naphthyl-[4′,1″]phenyl-4,4″-bis-N-hydroxycarboxamidine], the IC50 in data set [1] (setting [13]) was 13.4 µM; with L-6 rat mycoblast cells it was 9.4 µM; in data set [2] (Table 2, K = thousand) it was 9.1 µM.

For `CON=C(N)c1ccc(-c2ccc(-c3ccc(C(N)=NOC)cc3)c3ccccc23)cc1` [Compound 40, Phenyl[1,1′]naphthyl-[4′,1″]phenyl-4,4″-bis-N-methoxycarboxamidine], the IC50 in data set [1] (setting [13]) was 29.5 µM; in the data set with L-6 rat mycoblast cells it was 16.2 µM; in data set [2] (Table 2, K = thousand) it was 3.9 µM.

With `CCOC(=O)N=C(N)Nc1ccc(-c2ccc(-c3ccc(NC(N)=NC(=O)OCC)cc3)cc2)cc1` [Compound 50a, 4,4″-Bis(N′-ethoxycarbonyl)-guanidino-[1,1′;4′,1″]terphenyl], the IC50 was 142 µM in data set [1] (setting [10]); greater than 181 µM in the data set on L-6 rat mycoblast cells (setting [11]); 1.7 µM in data set [2] (Table 1, k/K = thousand).

With `CCOC(=O)N=C(NC)Nc1ccc(-c2ccc(-c3ccc(NC(=NC(=O)OCC)NC)cc3)cc2)cc1` [Compound 50b, 4,4″-Bis(N′-ethoxycarbonyl-N″-methyl)-guanidino-[1,1′;4′,1″]terphenyl], the 50% inhibitory concentration (IC50) turned out to be 7.5 µM in data set [1] (setting [10]); 5.7 µM in the data set on L-6 rat mycoblast cells (setting [11]); 8.9 µM in data set [2] (Table 1, k/K = thousand).

On to `CCOC(=O)N=C(Nc1ccc(-c2ccc(-c3ccc(NC(=NC(=O)OCC)NC(C)C)cc3)cc2)cc1)NC(C)C` [Compound 50c, 4,4″-Bis(N′-ethoxycarbonyl-N″-isopropyl)-guanidino-[1,1′;4′,1″]terphenyl], for which the IC50 came to 14.2 µM in data set [1] (setting [10]); 5.3 µM in the data set with L-6 rat mycoblast cells (setting [11]); 4.5 µM in data set [2] (Table 1, k/K = thousand).

Take `CNC(=N)Nc1ccc(-c2ccc(-c3ccc(NC(=N)NC)cc3)cc2)cc1` [Compound 51a, 4,4″-Bis(N′-methyl)-guanidino-[1,1′;4′,1″]terphenyl]: the IC50 in data set [1] (setting [10]) stood at 0.018 µM; in the data set with L-6 rat mycoblast cells (setting [11]), 65.1 µM; in data set [2] (Table 1, k/K = thousand), 0.007 µM.

As to `N=C(N)Nc1ccc(-c2ccc(-c3ccc(NC(=N)N)cn3)cc2)nc1` [Compound 55, 1,4-Bis-(5′-guanidinopyridin-2′-yl)phenylene hydrochloride salt], the IC50 in data set [1] (setting [4]) was 0.169 µM; with L-6 rat mycoblast cells (setting [12]) it was 152 µM; in data set [2] (setting [6]) it was 0.151 µM.

As for `CON=C(N)c1ccc(-c2ccc(-c3ccc(C(N)=NOC)nc3)cc2)cn1` [Compound 68, 1,4-Bis-[2′-(N-methoxyamidinopyridin-5′-yl)]-phenylene hydrochloride salt], the IC50 in data set [1] (Table 1, k/K = thousand, hydrochloride salt, read-out: T. b. r. IC50) was 141 µM; in data set [1] (Table 4, read-out: T. b. IC50), 4.57 µM; in the data set with L-6 rat mycoblast cells (read-out: CT IC50, Table 1, L-6 cells, hydrochloride salt), greater than 194 µM; in the data set on L-6 rat mycoblast cells (read-out: CT IC50, Table 4, L-6 cells) it was greater than 193 µM; in data set [2] (Table 1, k/K = thousand, hydrochloride salt), 5.5 µM; in data set [2] (Table 4), 0.637 µM.

For `CN(C)CC(=O)ON=C(N)c1ccc(-c2ccc(-c3ccc(C(N)=NOC(=O)CN(C)C)nc3)cc2)cn1` [Compound 69, 1,4-Bis-{2′-[N-(N′,N′-dimethylaminoacetoxy)amidinopyridin-5′-yl]}-phenylene], in data set [3] (25 mg/kg po, Table 5), the Cures is 0/4 and the Survival is recorded as 28.25 days.

Compound `N=C(N)c1ccc(OCCCCCOc2ccc(C(=N)N)cc2)cc1` [pentamidine, reference compound] had a Survival in data set [3] (setting [8]) of 42.7 days. In data set [3] (setting [9]), the responders at 20 mg/kg is 0%.

(Values after patent US8188121B2, “Substituted pyridines as antiparasitic AZA teraryl compounds” (The University of North Carolina at Chapel Hill, priority 2005, dated 2012).)
